Experimental data taken from the NIST ThermoML archive (doi:10.1016/j.jct.2018.08.005).
± gives the expanded uncertainty stated by the source.

Test: molar heat capacity at constant pressure; xn = mol fraction of the nth substance listed
Conditions: 100 kPa, Liquid, DSC

CCOC(F)(C(F)(F)C(F)(F)C(F)(F)F)C(F)(C(F)(F)F)C(F)(F)F (stereo not given) [2-trifluoromethyl-3-ethoxydodecafluorohexane] + CC(C)OC(C)C
molar heat capacity at constant pressure [J/K/mol]
Conditions	x1 = 0.25	x1 = 0.375	x1 = 0.5	x1 = 0.625	x1 = 0.75	x1 = 1
290.5 K	277.26 ± 16	310.54 ± 18	342.56 ± 20	375.58 ± 21	407.39 ± 23	–
295.44 K	279.61 ± 16	312.95 ± 18	345.14 ± 20	378.55 ± 22	410.41 ± 24	–
297.91 K	–	–	–	–	–	466.29 ± 27
300.38 K	281.77 ± 16	315.36 ± 18	347.98 ± 20	381.52 ± 22	413.77 ± 24	–
305.32 K	284.47 ± 16	317.99 ± 18	350.3 ± 20	384.2 ± 22	416.46 ± 24	–
307.79 K	–	–	–	–	–	472.92 ± 27
310.26 K	287.71 ± 16	320.4 ± 18	353.14 ± 20	387.17 ± 22	419.82 ± 24	–
315.2 K	290.42 ± 17	322.81 ± 18	355.98 ± 20	390.14 ± 22	422.85 ± 24	–
317.66 K	–	–	–	–	–	479.54 ± 27
320.13 K	293.12 ± 17	325.66 ± 19	358.82 ± 21	393.11 ± 23	425.87 ± 25	–
325.07 K	295.64 ± 17	328.29 ± 19	361.66 ± 21	396.08 ± 23	428.9 ± 25	–
327.54 K	–	–	–	–	–	486.58 ± 28
330.01 K	298.16 ± 17	330.92 ± 19	364.5 ± 21	399.35 ± 23	432.26 ± 25	–
334.95 K	300.69 ± 17	333.77 ± 19	367.08 ± 21	402.32 ± 23	434.61 ± 25	–
337.42 K	–	–	–	–	–	494.03 ± 28
339.89 K	303.21 ± 17	336.4 ± 19	369.66 ± 21	405.29 ± 23	437.97 ± 25	–
347.29 K	–	–	–	–	–	500.66 ± 29
357.17 K	–	–	–	–	–	508.53 ± 29
367.05 K	–	–	–	–	–	517.23 ± 29
376.92 K	–	–	–	–	–	523.85 ± 30
386.8 K	–	–	–	–	–	531.72 ± 30
